{"source": "patent US20140179773A1", "about": "“METHOD FOR THE TREATMENT OF HEART RELATED DISORDERS IN NAFLD PATIENTS” (INSTITUTO BIOCHIMICO ITALIANO GIOVANNI LORENZINI S.P.A., priority 2012, published 2014)", "assay_type_in_all_cases": "in vivo", "key": {"[1]": {"test_system": "db/db mice fed a methionine-choline deficient (MCD) diet", "assay": "Liver triglycerides content (colorimetric kit) in db/db mice fed MCD diet", "conditions": "4 weeks MCD diet, silibinin 20 mg/kg i.p. daily", "from_the_text": "All procedures fulfilled the Italian Guidelines for the Use and Care of Laboratory Animals. Six-week-old male BKS.Cg-m+/+ Leprdb/J (db/db) obese mice and six-week-old male heterozygous db/m lean control mice were purchased. Animals were maintained in a temperature and light-controlled facility and permitted ad libitum consumption of water; after two week of acclimation, db/db mice were fed a MCD diet for 4 weeks, whereas db/m mice were fed a MCD diet supplemented with methionine and choline, i.e. a standard diet (SD), for the same period. Silibinin was dissolved in saline (vehicle) and daily administered intraperitoneally at a dosage of 20 mg/kg of body weight. […]\nBlood glucose was measured by Accuchek (Roche Diagnostics, Milan, Italy). Serum ALT and serum insulin were determined using a multichannel autoanalyzer. Liver triglycerides content was measured using a serum/tissue triglyceride colorimetric kit (Biovision, Mountain View, Calif.). Liver and heart isoprostanes and 8-hydroxyguanosine (8-OHG) were determined by enzyme-linked immunosorbent assay (ELISA) test; reduced glutathione (GSH) was assessed by a GSH assay. Liver and heart nitrite/nitrates were measured colorimetrically using Griess reagent, following manufacturer's instructions. […]"}, "[2]": {"test_system": "Liver mitochondrial respiratory chain (MRC) complexes I-V", "assay": "Mitochondrial respiratory chain activity assay in liver of treated mice", "conditions": "activity relative to db/m + SD group = 100, MCD diet, silibinin 20 mg/kg i.p. daily 4 weeks", "from_the_text": "All procedures fulfilled the Italian Guidelines for the Use and Care of Laboratory Animals. Six-week-old male BKS.Cg-m+/+ Leprdb/J (db/db) obese mice and six-week-old male heterozygous db/m lean control mice were purchased. Animals were maintained in a temperature and light-controlled facility and permitted ad libitum consumption of water; after two week of acclimation, db/db mice were fed a MCD diet for 4 weeks, whereas db/m mice were fed a MCD diet supplemented with methionine and choline, i.e. a standard diet (SD), for the same period. Silibinin was dissolved in saline (vehicle) and daily administered intraperitoneally at a dosage of 20 mg/kg of body weight. Mice were distributed in 3 groups: group I included 6 db/m mice fed a control diet and treated with vehicle (db/m+SD); group II comprised 6 db/db mice fed a MCD diet and treated with vehicle (db/db+MCD); group III included 6 db/db mice fed a MCD diet and treated with silibinin (db/db+MCD+silibinin). Treatment was administered for a 4-week period; at the end of it, animals were sacrificed after an overnight fast. Blood, liver and heart samples were obtained and stored at −80° C. for further analysis. Mitochondrial respiratory chain (MRC) activities was determined as previously described. Briefly, liver tissues (50-70 mg) were homogenized with 15 vol of 20 mmol/L KP buffer, pH 7.4, and centrifuged at 800×g for 10 min. Respiratory chain enzymes and citrate synthase activities were measured in a DU-650 spectrophotometer. Incubation temperatures were 30° C. for complexes I, II, III, V, and citrate synthase, and 38° C. for complex IV. Enzyme activities were assessed in supernatants, expressed as nanomoles of substrate used per minute per milligram of protein and referred as a percentage of the specific activity of citrate synthase, to adjust for the hepatic content of mitochondria."}, "[3]": {"test_system": "db/db mice fed a methionine-choline deficient (MCD) diet", "assay": "Biometric and serum biochemical parameters in db/db mice fed MCD diet", "from_the_text": "This study is aimed at assessing the efficacy of silibinin both on liver and heart injury in NAFLD and at identifying the related molecular events. In order to investigate this issue, we used db/db mice fed a methionine-choline deficient (MCD) diet, a model combining the features of the metabolic syndrome with the histological pattern of NASH [23,24]. In fact, db/db mice fed an MCD diet do partially conserve increased visceral adiposity and an insulin resistant phenotype, while developing hepatocellular injury.\nAll procedures fulfilled the Italian Guidelines for the Use and Care of Laboratory Animals. Six-week-old male BKS.Cg-m+/+ Leprdb/J (db/db) obese mice and six-week-old male heterozygous db/m lean control mice were purchased. Animals were maintained in a temperature and light-controlled facility and permitted ad libitum consumption of water; after two week of acclimation, db/db mice were fed a MCD diet for 4 weeks, whereas db/m mice were fed a MCD diet supplemented with methionine and choline, i.e. a standard diet (SD), for the same period. Silibinin was dissolved in saline (vehicle) and daily administered intraperitoneally at a dosage of 20 mg/kg of body weight. Mice were distributed in 3 groups: group I included 6 db/m mice fed a control diet and treated with vehicle (db/m+SD); group II comprised 6 db/db mice fed a MCD diet and treated with vehicle (db/db+MCD); group III included 6 db/db mice fed a MCD diet and treated with silibinin (db/db+MCD+silibinin). Treatment was administered for a 4-week period; at the end of it, animals were sacrificed after an overnight fast. Blood, liver and heart samples were obtained and stored at −80° C. for further analysis.\nBlood glucose was measured by Accuchek (Roche Diagnostics, Milan, Italy). Serum ALT and serum insulin were determined using a multichannel autoanalyzer. Liver triglycerides content was measured using a serum/tissue triglyceride colorimetric kit (Biovision, Mountain View, Calif.). Liver and heart isoprostanes and 8-hydroxyguanosine (8-OHG) were determined by enzyme-linked immunosorbent assay (ELISA) test; reduced glutathione (GSH) was assessed by a GSH assay. Liver and heart nitrite/nitrates were measured colorimetrically using Griess reagent, following manufacturer's instructions. ELISA kit for TNF-α was used on whole myocardial tissue protein extracts, following manufacturer's instructions."}, "[4]": {"conditions": "db/db mice, 4 weeks MCD diet, silibinin 20 mg/kg i.p. daily"}, "[5]": {"conditions": "db/db mice, 4 weeks MCD diet, silibinin 20 mg/kg i.p. daily, overnight fast"}}, "data": [{"smiles": "COc1cc(C2Oc3cc([C@H]4Oc5cc(O)cc(O)c5C(=O)[C@@H]4O)ccc3OC2CO)ccc1O", "note": "(stereo partly shown) [silibinin, Silibinin]", "values": [{"measurement": "Liver triglycerides", "setting": "[1]", "result": "8.3 ± 2.4*, ** mg/g protein"}, {"measurement": "Liver MRC complex I", "setting": "[2]", "result": "90.2 ± 5.2"}, {"measurement": "Liver MRC complex II", "setting": "[2]", "result": "88.4 ± 4.3"}, {"measurement": "Liver MRC complex III", "setting": "[2]", "result": "94.4 ± 6.8"}, {"measurement": "Liver MRC complex IV", "setting": "[2]", "result": "96.1 ± 5.2"}, {"measurement": "Liver MRC complex V", "setting": "[2]", "result": "94.3 ± 6.2"}, {"measurement": "Effect on food intake", "setting": "[3]; data not shown", "result": "did not modify"}, {"measurement": "HOMA-IR", "setting": "[3]; [4]", "result": "1.7 ± 0.5*, **"}, {"measurement": "Serum ALT", "setting": "[3]; [4]", "result": "180.5 ± 66.5*, ** IU/L"}, {"measurement": "Blood glucose", "setting": "[3]; [5]", "result": "103.7 ± 16.8*, ** mg/dL"}, {"measurement": "Serum insulin", "setting": "[3]; [5]", "result": "6.5 ± 1.1", "unit": "mU/mL"}, {"measurement": "12-Weeks weight", "setting": "[3]; db/db mice, after 4 weeks MCD diet and silibinin 20 mg/kg i.p. daily", "result": "34.8 ± 1.9", "unit": "g"}, {"measurement": "Decrease of ALT levels", "setting": "[3]; silibinin-treated vs vehicle db/db fed MCD diet", "result": 3, "unit": "fold"}]}]}
